Patent publication US4931435A, “Agent with an antidepressant activity” (Boehringer Ingelheim KG, priority 1987, dated 1990)

Columns and labels:
isolated chicks = assay: chick call test: distress call activation in isolated one day old chicks (antidepressant activity); format: in vivo; settings: Placebo = 100%
Description: The call frequency of isolated one day old chicks, which decreases in the course of the test, is used as an experimental behavioral model of manifestations of resignation in depression, The method has been validated by tests on numerous neurotropically active substances; it is distinguished by its highly reproducible selectivity for antidepressants which are capable of reactivating the decreased call rate as a function of dosage. [distress call activation in isolated chicks; A new behavioral model for antidepressants, E. Lehr, Psychopharmacol. 89. […] Neurol. Psychiat.

[1] = test system: ptosis induced by tetrabenazine; assay: Inhibition of ptosis induced by tetrabenazine in the mouse; format: in vivo; settings: Control without tetrabenazine = 100%
[2] = test system: Albino mice of the Chbb: NMRI strain; settings: group 1 (m and f), i.v., mouse, dosage 100
Description: Albino mice of the Chbb: NMRI strain
A 2% solution of 1-benzyl-4-aminomethyl-pyrrolidin-2-one fumarate and a 0.25% imipramin solution (pH=6.2) were used.

mice = settings: mouse, in vivo
Protocol: The test substances were dissolved in 0.9% NaCl solution.
**The animals in Group 2 were treated first with
1benzyl-4-aminomethyl-pyrrolidin-2-one FU and immediately afterwards
(about 10 to 15 seconds later) with imipramin.

| Compound | Increase in call rate in the second hour (isolated chicks; 10 mg/kg i.p.) [%] | Inhibition of ptosis induced by tetrabenazine ([1]; 3 mg/kg p.o.) [%] | Lethality dead/treated animals [2] | effect of pretreatment on the toxic effect of imipramin (mice) | Increase in call rate in the second hour (isolated chicks; 5 mg/kg i.p.) [%] | Inhibition of ptosis induced by tetrabenazine ([1]; 3.5 mg/kg p.o.) [%] |
| --- | --- | --- | --- | --- | --- | --- |
| CN(C)CCCN1c2ccccc2CCc2ccccc21 [Compound A, 10,11-dihydro-N,N-dimethyl-5H-dibenz[b,f]-azepin-5-propanamine, reference compound] | 131 | 12 |  |  |  |  |
| NCC1CC(=O)N(Cc2ccccc2)C1 (stereo not drawn) [Compound B, 1-benzyl-4-aminomethyl-pyrrolidin-2-one] |  |  | 0/10 | toxic effect of imipramin is reduced | 284 | 48 |
